Test results from patent US8299056B2 (Signal Pharmaceuticals, LLC, priority 2008, dated 2012).
Read-outs that look alike come from different tables or passages of the source.

Target: T1, Syk (Homo sapiens, UniProt P43405)
T1 construct: purchased Carna Biosciences
Experiment: Syk HTRF assay
Format: biochemical
Procedure, shortened: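 HTRF kinase assay in HEPES pH 7.6 buffer with MgCl2, DTT and Triton X100; start mix of 87.5 μM ATP and 80 nM biotinylated peptide, 1 h at room temperature. EDTA stop, then Eu-anti-phosphotyrosine/streptavidin-DyLight 647 detection, read as 665/615 nm emission ratio.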

[1] = activity levels A-D, read-out: Activity Level (IC50 in the Syk HTRF assay)
[2] = IC50 activity level, read-out: Activity Level
[3] = read-out: Activity Level (Syk HTRF assay IC50)

IC50 [3]	SMILES	further results
–	OCC1CCN(c2cccc3nc(Nc4ccc(C(F)(F)F)cc4)nn23)CC1 [Example 346, (1-(2-(4-(trifluoromethyl)phenylamino)-[1,2,4]triazolo[1,5-a]pyridin-5-yl)piperidin-4-yl)methanol]	IC50 [1]: 1000 to 10000 nM
–	CN(C)Cc1nc2cc(-c3cccc4nc(Nc5ccccc5)nn34)ccc2[nH]1 [Example 486, 5-(2-((dimethylamino)methyl)-1H-benzo[d]imidazol-5-yl)-N-phenyl-[1,2,4]triazolo[1,5-a]pyridin-2-amine]	IC50 [2]: 0.005 to 250 nM
0.005 to 250 nM	CC1(C)C(=O)Nc2cc(Nc3nc4cccc(CC5CCOCC5)n4n3)ccc21 [Example 176, 3,3-dimethyl-6-(5-((tetrahydro-2H-pyran-4-yl)methyl)-[1,2,4]triazolo[1,5-a]pyridin-2-ylamino)indolin-2-one]	–
0.005 to 250 nM	CN1C(=O)C(C)(C)c2ccc(Nc3nc4cccc(N[C@H]5CC[C@@H](O)CC5)n4n3)cc21 [Example 152, cis-6-(5-(4-hydroxycyclohexylamino)-[1,2,4]triazolo[1,5-a]pyridin-2-ylamino)-1,3-3-trimethylindolin-2-one]	–
0.005 to 250 nM	CN(C)Cc1nc2ccc(Nc3nc4cccc(-c5cccc(F)c5)n4n3)cc2[nH]1 [compound 1, N-(2-((dimethylamino)methyl)-1H-benzo[d]imidazol-6-yl)-5-(3-fluorophenyl)-[1,2,4]triazolo[1,5-a]pyridin-2-amine]	–
500 to 1000 nM	CC1(C)NC(=O)c2cc(Nc3nc4cccc(NC5CCOCC5)n4n3)ccc21 [compound 128, 3,3-dimethyl-6-(5-(tetrahydro-2H-pyran-4-ylamino)-[1,2,4]triazolo[1,5-a]pyridin-2-ylamino)isoindolin-1-one]	–
–	CN(C)c1ccc(Nc2nc3cccc(-c4ccc5nc(CO)[nH]c5c4)n3n2)cn1 [Example 298, (6-(2-(6-(dimethylamino)pyridin-3-ylamino)-[1,2,4]triazolo[1,5-a]pyridin-5-yl)-1H-benzo[d]imidazol-2-yl)methanol]	IC50 [1]: 0.005 to 250 nM
500 to 1000 nM	CC1(C)NC(=O)c2cc(Nc3nc4cccc(N[C@H]5CC[C@H](O)CC5)n4n3)ccc21 (stereo in doubt) [Example 137, trans-6-(5-(4-hydroxycyclohexylamino)-[1,2,4]triazolo[1,5-a]pyridin-2-ylamino)-3,3-dimethylisoindolin-1-one]	–
0.005 to 250 nM	CN1C(=O)C(C)(C)c2ccc(Nc3nc4cccc(NC5CCOC5)n4n3)cc21 (stereo in doubt) [compound 123, (R)-1,3,3-trimethyl-6-(5-(tetrahydrofuran-3-ylamino)-[1,2,4]triazolo[1,5-a]pyridin-2-ylamino)indolin-2-one]	–
–	c1ccc(Nc2nc3cccc(Oc4ccccc4)n3n2)cc1 [Example 503, 5-phenoxy-N-phenyl-[1,2,4]triazolo[1,5-a]pyridin-2-amine]	IC50 [2]: 1000 to 10000 nM
1000 to 10000 nM	N#Cc1cc(Nc2nc3cccc(-c4ccccc4)n3n2)ccn1 [compound 52]	–
0.005 to 250 nM	CC1(C)C(=O)Nc2cc(Nc3nc4cccc(N[C@@H]5CCOC5)n4n3)ccc21 [Example 150, (R)-3,3-dimethyl-6-(5-(tetrahydrofuran-4-ylamino)-[1,2,4]triazolo[1,5-a]pyridin-2-ylamino)indolin-2-one]	–
–	C[C@@H](CO)Cc1cccc2nc(Nc3ccccc3)nn12 [Example 479, (R)-2-methyl-3-(2-(phenylamino)-[1,2,4]triazolo[1,5-a]pyridin-5-yl)propan-1-ol]	IC50 [2]: 500 to 1000 nM
–	C[C@]1(O)CC[C@H](Nc2cccc3nc(Nc4ccc(C(F)(F)F)cc4)nn23)CC1 [Example 383, trans-1-methyl-4-(2-(4-(trifluoromethyl)phenylamino)-[1,2,4]triazolo[1,5-a]pyridin-5-ylamino)cyclohexanol]	IC50 [1]: 500 to 1000 nM
250 to 500 nM	Cn1cnc2cc(Nc3nc4cccc(-c5ccccc5)n4n3)ccc21 [compound 55, N-(1-methyl-1H-benzo[d]imidazol-5-yl)-5-phenyl-[1,2,4]triazolo[1,5-a]pyridin-2-amine]	–
